Results: patent US20230313217A1, “CHLOROPLAST TARGETING PEPTIDES AND CONJUGATES AND COMPOSITIONS THEREOF” (The Regents of the University of California, priority 2021, published 2023)

Experiments:
[1] = test system: chloroplasts in leaf mesophyll cells; assay: Chemical cargo (FDA) delivery to chloroplasts, confocal colocalization; assay type: in vivo, Arabidopsis thaliana; conditions: FDA alone
From the text: Chemical Cargo and Plasmid DNA and Delivery to Chloroplasts Mediated by Targeted Nanomaterials. To assess the delivery of chemical cargoes to chloroplasts mediated by TP-β-CD nanocarriers, we loaded β-cyclodextrins with the fluorescent dye […] (FDA) (FIG. 4A). We imaged the localization of FDA within leaf mesophyll tissues by confocal microscopy and quantified the localization of this fluorescence dye with chloroplasts autofluorescence (FIG. 4B,C). Plant leaves treated with TP-β-CD-FDA or TP-β-CD (Table 1) were analyzed for the fluorescence emission crosstalk with confocal microscopy under laser excitation with a 488 nm laser (FIG. 13A). […] When added together with CDs or β-CDs, the FDA was observed both in the intracellular and extracellular space. […] In contrast, when FDA was delivered by TP-β-CDs, most of the FDA fluorescence signal was detected inside leaf mesophyll cells and highly colocalized with chloroplasts (70.0±9.5%) (FIG. 4B). […] Although targeted TP-β-CDs improved the delivery of FDA to chloroplasts in leaf mesophyll cells, the FDA fluorescence signal was localized throughout the entire leaf mesophyll cells. […] Colocalization rates of FDA fluorescence with chloroplasts were determined using Mander's coefficient analysis (COLOC2, ImageJ). […]
Confocal Fluorescence Microscopy. […]

[2] = ζ potential of carbon nanostructures (Zetasizer); assay type: physicochemical; conditions: neutral charge
Protocol: The resulting PEI-SWCNT suspension was characterized by measuring the absorbance spectra on a UV-vis absorbance spectrophotometer (UV-2600, Shimadzu). The quality of the SWCNT suspension was determined by analyzing absorbance peaks at 632 nm. This measurement was performed with triplicates. The concentration of the PEI-SWCNT was determined spectrophotometrically using the absorption value at 632 nm and utilizing the equation (absorbance at 632 nm/extinction coefficient of 0.036)=mg L^−1. The final concentration obtained after purification ranged from 18 to 30 mg/L. The nanoparticle ζ potential was measured using a Zetasizer (Nano ZS, Malvern Instruments) in samples suspended in 10 mM TES buffer pH 7.0, with 0.1 mM NaCl. The hydrodynamic size was measured using Zetasizer (Nano ZS, Malvern Instruments) in samples suspended in a 10 mM TES buffer at pH 7.
Characterization of Nanomaterials. All nanomaterials were characterized by absorbance UV-vis spectroscopy (UV-2600 Shimadzu), hydrodynamic size (Nano S), and ζ potential (Nano ZS). The nanomaterial ζ potential and hydrodynamic diameter were measured in a 10 mM TES buffer (pH 7.0). The ζ potential measurements were performed in 0.1 mM NaCl to improve conductivity and analyzed by the Hückel approximation model.^111 CD fluorescence emission was collected using a fluorescence spectrometer (Horiba PTI QM-400). The stepwise synthesis of TP-β-CDs was analyzed using FTIR (Thermo Nicolet 6700 FTIR).

Compound	localization of FDA in leaf mesophyll tissue [1]	charge of chloroplast targeting peptide [2]
O=C(O)c1ccc2c(c1)C1(OC2=O)c2ccc(O)cc2Oc2cc(O)ccc21 [FDA, 6-carboxyfluorescein]	localized near the plasma membrane	–
MASSMLSSATMVGGC [chloroplast targeting peptide for CD]	–	−0.1 mV
